Drawing on patent publication US20220144847A1, “HETEROCYCLIC COMPOUND, PHARMACEUTICAL COMPOSITION COMPRISING SAME, PREPARATION METHOD THEREFOR, AND USE THEREOF” (Sichuan Kelun-Biotech Biopharmaceutical Co., Ltd., priority 2019, published 2022), this text covers inhibition and IC50 for 19 compounds.

Chain of VEGFR2 (P35968 20-1356, species assumed): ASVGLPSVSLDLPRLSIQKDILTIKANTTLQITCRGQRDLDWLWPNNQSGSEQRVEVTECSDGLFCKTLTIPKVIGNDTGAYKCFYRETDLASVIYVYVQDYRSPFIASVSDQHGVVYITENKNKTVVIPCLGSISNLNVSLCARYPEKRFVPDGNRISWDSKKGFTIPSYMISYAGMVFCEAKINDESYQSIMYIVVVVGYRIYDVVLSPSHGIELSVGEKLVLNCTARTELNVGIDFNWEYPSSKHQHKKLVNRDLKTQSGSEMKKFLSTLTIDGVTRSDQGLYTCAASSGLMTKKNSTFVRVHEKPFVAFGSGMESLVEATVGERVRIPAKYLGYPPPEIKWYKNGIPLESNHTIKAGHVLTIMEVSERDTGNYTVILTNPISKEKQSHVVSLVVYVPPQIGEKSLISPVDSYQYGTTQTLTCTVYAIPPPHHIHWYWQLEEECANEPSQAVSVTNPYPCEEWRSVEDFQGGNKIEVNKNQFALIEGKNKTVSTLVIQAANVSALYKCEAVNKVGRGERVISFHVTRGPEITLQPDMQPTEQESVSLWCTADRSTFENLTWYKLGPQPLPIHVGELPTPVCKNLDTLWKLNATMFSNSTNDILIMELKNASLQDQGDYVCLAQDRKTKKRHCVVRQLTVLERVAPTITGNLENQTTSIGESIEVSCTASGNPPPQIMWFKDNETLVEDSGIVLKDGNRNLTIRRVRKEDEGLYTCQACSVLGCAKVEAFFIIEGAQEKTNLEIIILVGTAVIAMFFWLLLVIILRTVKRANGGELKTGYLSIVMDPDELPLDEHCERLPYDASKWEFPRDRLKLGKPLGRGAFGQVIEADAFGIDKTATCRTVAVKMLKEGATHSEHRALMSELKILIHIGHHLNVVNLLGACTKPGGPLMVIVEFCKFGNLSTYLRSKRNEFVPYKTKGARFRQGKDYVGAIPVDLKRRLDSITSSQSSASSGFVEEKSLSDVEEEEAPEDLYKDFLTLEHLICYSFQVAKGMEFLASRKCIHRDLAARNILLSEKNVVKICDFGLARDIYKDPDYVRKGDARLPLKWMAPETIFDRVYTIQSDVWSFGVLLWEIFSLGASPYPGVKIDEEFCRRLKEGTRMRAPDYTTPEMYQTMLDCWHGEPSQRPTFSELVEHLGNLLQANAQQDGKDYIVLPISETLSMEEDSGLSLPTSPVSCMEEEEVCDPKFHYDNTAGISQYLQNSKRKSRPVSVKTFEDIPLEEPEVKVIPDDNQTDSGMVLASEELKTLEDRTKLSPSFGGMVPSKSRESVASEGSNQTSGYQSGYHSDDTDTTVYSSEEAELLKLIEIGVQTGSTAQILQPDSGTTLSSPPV
Chain of RET-V804M (P07949 29-1114 V804M): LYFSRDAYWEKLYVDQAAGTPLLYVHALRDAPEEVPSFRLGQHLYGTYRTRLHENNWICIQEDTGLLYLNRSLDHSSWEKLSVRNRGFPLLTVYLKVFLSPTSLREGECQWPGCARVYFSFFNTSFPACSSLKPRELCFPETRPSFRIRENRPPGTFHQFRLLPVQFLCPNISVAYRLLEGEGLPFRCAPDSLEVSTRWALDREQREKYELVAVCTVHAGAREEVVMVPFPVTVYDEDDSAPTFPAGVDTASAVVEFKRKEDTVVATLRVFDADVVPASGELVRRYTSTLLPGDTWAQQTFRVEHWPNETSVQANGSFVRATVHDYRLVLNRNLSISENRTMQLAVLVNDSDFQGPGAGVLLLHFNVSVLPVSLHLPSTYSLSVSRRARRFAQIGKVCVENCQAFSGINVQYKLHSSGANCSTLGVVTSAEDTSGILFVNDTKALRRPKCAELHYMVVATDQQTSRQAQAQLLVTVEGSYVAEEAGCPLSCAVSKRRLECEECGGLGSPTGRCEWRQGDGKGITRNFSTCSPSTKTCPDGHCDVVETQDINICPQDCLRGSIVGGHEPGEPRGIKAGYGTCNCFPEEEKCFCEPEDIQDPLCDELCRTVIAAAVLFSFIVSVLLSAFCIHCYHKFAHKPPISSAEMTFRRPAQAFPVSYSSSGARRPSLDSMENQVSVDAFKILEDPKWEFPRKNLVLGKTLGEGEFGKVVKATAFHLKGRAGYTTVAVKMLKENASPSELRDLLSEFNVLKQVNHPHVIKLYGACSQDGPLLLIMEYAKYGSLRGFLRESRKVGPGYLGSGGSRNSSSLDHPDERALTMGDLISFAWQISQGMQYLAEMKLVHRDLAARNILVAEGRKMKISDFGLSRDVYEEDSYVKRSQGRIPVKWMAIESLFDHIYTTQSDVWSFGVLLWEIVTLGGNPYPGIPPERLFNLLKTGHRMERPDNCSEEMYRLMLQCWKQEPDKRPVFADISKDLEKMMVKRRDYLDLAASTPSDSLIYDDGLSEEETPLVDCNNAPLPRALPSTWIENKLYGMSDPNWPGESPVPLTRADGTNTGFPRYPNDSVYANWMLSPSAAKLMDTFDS

One assay deals with RET-V804M (Homo sapiens, UniProt P07949, V804M). Kind of assay: RET inhibition experiment (HTRF KinEASE-TK kit), mutant RET-V804M. It is filed as biochemical. The settings on record: 10 nM (Table 2); read-out: Inhibition rate on RET-V804M. Here is the method: Experimental method: According to the instructions of the HTRF KinEASE-TK kit (Cisbio), the compounds of the present disclosure were tested for their inhibitory effects on the activity of wild-type RET enzyme, mutant RET enzyme (RET-V804M, RET-V804L, and RET-M918T) and fusion-type RET enzyme (RET-CCDCl6). After pre-incubation of different RET enzymes and different concentrations of the test compounds at room temperature for 30 min, a substrate and adenosine triphosphate (ATP) were added to initiate the reaction. After incubation at room temperature for 40 min, TK antibody-cryptate and streptavidin-XL665 were added, and the test was performed after incubation at room temperature for 45 min. With the solvent group (DMSO) as the negative control and the buffer group (without RET enzyme) as the blank control, the relative inhibitory activity percentages (i.e., inhibition rates) of different concentrations of the compounds were computed as per the following formula:
(§1) Relative inhibitory activity percentage=1−(compound group of different concentrations−blank control)/(negative control−blank control)*100%
(§2) The relative inhibitory activity percentages of different concentrations of the compounds were plotted with respect to the compound concentrations, and the curve was fitted according to a four-parameter model to compute the IC50 value as per the following formula:
(§3) y=min+(max−min)/(1+(x/IC50)^(−Hillslope))
(§4) where y is the relative inhibitory activity percentage, max is the maximum value of the fitted curve, min is the minimum value of the fitted curve, x is the logarithmic concentration of the compound, and Hillslope is the slope of the curve.
Background: Time-resolved FRET reads energy transfer from a long-lived donor to a nearby acceptor.
For `Cc1cc(Nc2cc(C)[nH]n2)nc(-c2ccc(N3CC4CC(C3)N4Cc3ccc(-n4ncc(Cl)c4C)nc3)nc2)n1` [Compound 28′, 2-(6-(6-((6-(4-chloro-5-methyl-1H-pyrazol-1-yl)pyridin-3-yl)methyl)-3,6-diazabicyclo[3.1.1]heptan-3-yl)pyridin-3-yl)-6-methyl-N-(5-methyl-1H-pyrazol-3-yl)pyrimidin-4-amine], the inhibition (in general, the change of the read-out against control, counted positive when it falls) at 0.01 µM was 34%.

Staying with this assay, now noted: 100 nM (Table 2); read-out: Inhibition rate on RET-V804M.
Turning to `Cc1ccc(CN2C3CC2CN(c2ccc(-c4nc(C)cc(Nc5cc(C)[nH]n5)n4)cn2)C3)cn1` [Compound 16, 6-methyl-N-(5-methyl-1H-pyrazol-3-yl)-2-(6-(6-((6-methylpyridin-3-yl)methyl)-3,6-diazabicyclo[3.1.1]heptan-3-yl)pyridin-3-yl)pyrimidin-4-amine], the inhibition at 0.1 µM was 92%.
Same read-out and setting: under `COc1cncc(CN2C3CC2CN(c2ccc(-c4nc(C)cc(Nc5cc(C)[nH]n5)n4)cn2)C3)c1` [Compound 18, 2-(6-(6-((5-methoxypyridin-3-yl)methyl)-3,6-diazabicyclo[3.1.1]heptan-3-yl)pyridin-3-yl)-6-methyl-N-(5-methyl-1H-pyrazol-3-yl)pyrimidin-4-amine] stands 70%; under `Cc1cc(Nc2cc(C)[nH]n2)nc(-c2ccc(N3CC4CC(C3)N4Cc3cnccc3C)nc2)n1` [Compound 21, 6-methyl-N-(5-methyl-1H-pyrazol-3-yl)-2-(6-(6-((4-methylpyridin-3-yl)methyl)-3,6-diazabicyclo[3.1.1]heptan-3-yl)pyridin-3-yl)pyrimidin-4-amine], 49%; under `COc1ccc(CN2CCN(c3ccc(-c4nc(C)cc(Nc5cc(C)[nH]n5)n4)cn3)CC2)cn1` [Compound 49, 2-(6-(4-((6-methoxypyridin-3-yl)methyl)piperazin-1-yl)pyridin-3-yl)-6-methyl-N-(5-methyl-1H-pyrazol-3-yl)pyrimidin-4-amine], 75%.
Consider `COc1ccc(CN2C3CC2CN(c2ccc(-c4nc(C)cc(Nc5cc(C)[nH]n5)n4)cn2)C3)nc1` [Compound 67, 2-(6-(6-((5-methoxypyridin-2-yl)methyl)-3,6-diazabicyclo[3.1.1]heptan-3-yl)pyridin-3-yl)-6-methyl-N-(5-methyl-1H-pyrazol-3-yl)pyrimidin-4-amine], for which the inhibition at 0.1 µM worked out at 82%.
On to `Cc1cc(Nc2cc(C)[nH]n2)nc(-c2ccc(N3CC4CC(C3)N4Cc3cncc(F)c3)nc2)n1` [Compound 98, 2-(6-(6-((5-fluoropyridin-3-yl)methyl)-3,6-diazabicyclo[3.1.1]heptan-3-yl)pyridin-3-yl)-6-methyl-N-(5-methyl-1H-pyrazol-3-yl)pyrimidin-4-amine], for which the inhibition at 0.1 µM was found to be 63%.
Still for that read-out and setting: the same measure for `COc1ccc(C(=O)N2CCN(c3ccc(-c4nc(C)cc(Nc5cc(C)[nH]n5)n4)cn3)CC2)cn1` [Compound 110, (6-methoxypyridin-3-yl)(4-(5-(4-methyl-6-((5-methyl-1H-pyrazol-3-yl)amino)pyrimidin-2-yl)pyridin-2-yl)piperazin-1-yl)methanone]: 62%; for `COc1ccc(CC(=O)N2CCN(c3ccc(-c4nc(C)cc(Nc5cc(C)[nH]n5)n4)cn3)CC2)cn1` [Compound 111, 2-(6-methoxypyridin-3-yl)-1-(4-(5-(4-methyl-6-((5-methyl-1H-pyrazol-3-yl)amino)pyrimidin-2-yl)pyridin-2-yl)piperazin-1-yl)ethan-1-one]: 46%.
On the same count and under the same terms, under `Cc1cc(Nc2cc(C)[nH]n2)nc(-c2ccc(N3CC4CC(C3)N4Cc3ccc(C#N)nc3)nc2)n1` [Compound 117, 5-((3-(5-(4-methyl-6-((5-methyl-1H-pyrazol-3-yl)-amino)pyrimidin-2-yl)pyridin-2-yl)-3,6-diazabicyclo[3.1.1]heptan-6-yl)methyl)-2-cyanopyridine] stands 76%.
Regarding `Cc1cc(Nc2cc(C)[nH]n2)nc(-c2ccc(N3CC4CC(C3)N4Cc3ccc(C(F)(F)F)nc3)nc2)n1` [Compound 118, 6-methyl-N-(5-methyl-1H-pyrazol-3-yl)-2-(6-(6-((6-(trifluoromethyl)pyridin-3-yl)methyl)-3,6-diazabicyclo[3.1.1]heptan-3-yl)pyridin-3-yl)pyrimidin-4-amine], the inhibition at 0.1 µM was found to be 74%.
Same read-out and setting: the same measure for `Cc1cc(Nc2cc(C)[nH]n2)nc(-c2ccc(N3CC4CC(C3)N4Cc3ccc(-n4cc(CF)cn4)nc3)nc2)n1` [Compound 126, 2-(6-(6-((6-(4-fluoromethyl-1H-pyrazol-1-yl)pyridin-3-yl)methyl)-3,6-diazabicyclo[3.1.1]heptan-3-yl)pyridin-3-yl)-6-methyl-N-(5-methyl-1H-pyrazol-3-yl)pyrimidin-4-amine]: 82%; for `Cc1cc(Nc2cc(C)[nH]n2)nc(-c2ccc(N3CC4CC(C3)N4Cc3ccc(-n4cc(CO)cn4)nc3)nc2)n1` [Compound 127, (1-(5-((3-(5-(4-methyl-6-((5-methyl-1H-pyrazol-3-yl)amino)pyrimidin-2-yl)pyridin-2-yl)-3,6-diazabicyclo[3.1.1]heptan-6-yl)methyl)pyridin-2-yl)-1H-pyrazol-4-yl)methanol]: 84%.

Staying with this assay, now noted: read-out: Inhibition rate on RET-V804M.
Take `COc1ccc(C(C)N2C3CC2CN(c2ccc(-c4nc(C)cc(Nc5cc(C)[nH]n5)n4)cn2)C3)cc1` (centres unmarked) [Compound 50, 2-(6-(6-(1-(4-methoxyphenyl)ethyl)-3,6-diazabicyclo[3.1.1]heptan-3-yl)pyridin-3-yl)-6-methyl-N-(5-methyl-1H-pyrazol-3-yl)pyrimidin-4-amine]: the inhibition at 0.1 µM stood at 50%.
On to `Cc1cc(Nc2cc(C)[nH]n2)nc(-c2ccc(N3CC4CC(C3)N4Cc3ccc(C(F)(F)F)cc3)nc2)n1` [Compound 84, 6-methyl-N-(5-methyl-1H-pyrazol-3-yl)-2-(6-(6-(4-(trifluoromethyl)benzyl)-3,6-diazabicyclo[3.1.1]heptan-3-yl)pyridin-3-yl)pyrimidin-4-amine], for which the inhibition at 0.1 µM worked out at 72%.
Same read-out and setting: the same measure for `Cc1cc(Nc2cc(C)[nH]n2)nc(-c2ccc(N3CC4CC(C3)N4Cc3ccc(C#N)cc3)nc2)n1` [Compound 85, 4-((3-(5-(4-methyl-6-((5-methyl-1H-pyrazol-3-yl)-amino)pyrimidin-2-yl)pyridin-2-yl)-3,6-diazabicyclo[3.1.1]heptan-6-yl)methyl)benzonitrile]: 77%.

Still in this assay, the particulars now being: read-out: The IC50 (nM) for inhibiting V804M.
In the case of `Cc1cc(Nc2cc(C)[nH]n2)nc(-c2ccc(N3C[C@H]4C[C@@H](C3)N4C(C)c3ccc(-n4cc(F)cn4)nc3)nc2)n1` (single isomer, unassigned) [Compound 52-2], the IC50 – broadly, the concentration needed to halve the response being measured – is 13 ± 2.34 nM.

A further assay deals with VEGFR2 (Homo sapiens, UniProt P35968). The assay can be described thus: VEGFR2 inhibition experiment (HTRF KinEASE-TK kit). The assay is classed as biochemical. Conditions: 100 nM; read-out: Inhibition rate on VEGFR2. The protocol: Experimental method: According to the instructions of the HTRF KinEASE-TK kit (Cisbio), the compounds of the present disclosure were tested for their inhibitory effects on the VEGFR2 enzyme activity. After pre-incubation of the VEGFR2 enzyme and different concentrations of test compounds at room temperature for 30 min, a substrate and adenosine triphosphate (ATP) were added to initiate the reaction. After incubation at room temperature for 40 min, TK antibody-cryptate and streptavidin-XL665 were added, and the test was performed after incubation at room temperature for 45 min. With the solvent group (DMSO) as the negative control and the buffer group (without VEGFR2 enzyme) as the blank control, the relative inhibitory activity percentages (i.e., inhibition rates) of different concentrations of the compounds were computed as per the following formula:
as §1, §2, §3, §4
Turning to `Cc1cc(Nc2cc(C)[nH]n2)nc(-c2ccc(N3CC4CC(C3)N4C(C)c3ccc(-n4cc(F)cn4)nc3)nc2)n1` (centres unmarked) [Compound 52, 2-(6-(6-(1-(6-(4-fluoro-1H-pyrazol-1-yl)pyridin-3-yl)ethyl)-3,6-diazabicyclo[3.1.1]heptan-3-yl)pyridin-3-yl)-6-methyl-N-(5-methyl-1H-pyrazol-3-yl)pyrimidin-4-amine], the inhibition at 0.1 µM is -5%.

The same assay, now with this note: 300 nM; read-out: Inhibition rate on VEGFR2.
In the case of `Cc1cc(Nc2cc(C)[nH]n2)nc(-c2ccc(N3C[C@H]4C[C@@H](C3)N4C(C)c3ccc(-n4cc(F)cn4)nc3)nc2)n1` (single isomer, unassigned) [Compound 52-2], the inhibition at 0.3 µM was 12%.
Regarding `Cc1cc(Nc2cc(C)[nH]n2)nc(-c2ccc(N3CC4CC(C3)N4C(C)c3ccc(-n4cccn4)nc3)nc2)n1` (centres unmarked) [Compound 125, 2-(6-(6-(1-(6-(1H-pyrazol-1-yl)pyridin-3-yl)ethyl)-3,6-diazabicyclo[3.1.1]heptan-3-yl)pyridin-3-yl)-6-methyl-N-(5-methyl-1H-pyrazol-3-yl)pyrimidin-4-amine], the inhibition at 0.3 µM amounted to 44%.
